Reference: patent US20080214606A1, “Methods for the Identification and Use of Compounds Suitable for the Treatment of Drug Resistant Cancer Cells” (The Government of the United States of America as …, priority 2004, published 2008)

Key:
ABCC3 = biological target: T1, ABCC3 (Homo sapiens, UniProt O15438); assay: Correlation of ABCC3 expression with drug sensitivity across the NCI-60; assay type: cell-based; conditions: Pearson correlation of ABCC3 expression with sensitivity of the 60 cell lines; 1429 compounds; inverse, p < 0.0001
T1 construct: profiled in 60 diverse cancer cell lines (the NCI-60) using real-time RT-PCR; endogenous in cells; host or cells: NCI-60 human cancer cell lines
Experimental: (§1) Expression levels are measured by real-time quantitative RT-PCR using the LightCycler RNA Amplification SYBR Green kit and a LightCycler machine (Roche Biochemicals, Indianapolis, Ind.). […] When possible, the amplicons are designed to encompass exon-intron boundaries to avoid amplification of genomic DNA. Since the Syber Green assay detects accumulation of double stranded DNA, primers are selected (from a battery consisting of about 200 primers) that amplified a single product of the correct size.
(§2) RT-PCR is carried out on 150 ng total RNA, in the presence of 250 nM specific primers. Following reverse transcription (20 min at 50° C.), the PCR reaction consists of 45 cycles of denaturation (15 sec at 95° C.), annealing (30 sec at 58° C.), and elongation (30 sec at 72° C.). No-template (water) reaction mixtures are prepared as negative controls.
(§3) During PCR amplification, fluorescence emission is measured and recorded in real time by the LightCycler. Crossing point values are calculated, using the LightCycler software package, by the Fit Points analysis method, with baseline fluorescence set at 1. The SyberGreen assay measures accumulation of double-stranded products, and the appearance of primer dimers limits quantitation at high cycle numbers. The specificity of amplified products is verified by melting-curve analysis and agarose gel electrophoresis (not shown). The raw results are expressed as number of cycles to reach the crossing point. If the desired product is not detected, the corresponding value is adjusted to crossing points indicating no expression. To assess the contribution of experimental artifacts, selected cell lines are assessed in replicate.
(§4) The two are combined to form a joint dataset that includes 1429 compounds.
(§5) To determine quantitatively how well the 47 genes cluster the cell lines by their tissues of origin, a statistical method is employed wherein the kappa statistic is used to indicate how well the observed clusters correspond to the nine tissue-of-origin classifications. […] To control the overall false type 1 error rate, both a step-down procedure (Westfall and Young, 1993, Resampling-Based Multiple Testing: Examples and Methods for p-value Adjustment (New York: Wiley)) and a step-up procedure (Reiner et al., 2003, Bioinformatics 19:368-375) were employed to adjust for multiple testing of all 47 genes simultaneously. In the Benjamini-Hochberg procedure the p-values are computed in the standard way by permutation, assuming that all distributions are exchangeable: the number of values in the permuted data with correlations over a threshold, divided by the number of compounds and by the number of permutations. In this analysis, the False Discovery Rate (q-value) at which each compound would be declared was calculated using the step-up procedure for positively correlated test statistics (again true because all correlations being compared are computed against the same ABC gene): in this procedure the first q-value for the largest correlation is the Bonferroni-corrected p-value for that gene; then further q-values are calculated as qj=max(pj*1429/j, qj-1). This procedure limits the expected proportion of false positives in the list 1, . . . , j to at most qj.

ABCC1 = biological target: T2, ABCC1 (Homo sapiens, UniProt P33527); assay: Correlation of ABCC1 expression with drug sensitivity across the NCI-60; assay type: cell-based; conditions: Pearson correlation of ABCC1 expression with sensitivity of the 60 cell lines; 1429 compounds; inverse, p < 0.0001
T2 construct: profiled in 60 diverse cancer cell lines (the NCI-60) using real-time RT-PCR; endogenous in cells; host or cells: NCI-60 human cancer cell lines
Experimental: as §1, §2, §3, §4
(§6) In the Benjamini-Hochberg procedure the p-values are computed in the standard way by permutation, assuming that all distributions are exchangeable: the number of values in the permuted data with correlations over a threshold, divided by the number of compounds and by the number of permutations. In this analysis, the False Discovery Rate (q-value) at which each compound would be declared was calculated using the step-up procedure for positively correlated test statistics (again true because all correlations being compared are computed against the same ABC gene): in this procedure the first q-value for the largest correlation is the Bonferroni-corrected p-value for that gene; then further q-values are calculated as qj=max(pj*1429/j, qj-1). This procedure limits the expected proportion of false positives in the list 1, . . . , j to at most qj.

ABCB11 = biological target: T3, ABCB11 (Homo sapiens, UniProt O95342); assay: Correlation of ABCB11 expression with drug sensitivity across the NCI-60; assay type: cell-based; conditions: Pearson correlation of ABCB11 expression with sensitivity of the 60 cell lines; 1429 compounds; inverse, p < 0.0001
T3 construct: profiled in 60 diverse cancer cell lines (the NCI-60) using real-time RT-PCR; endogenous in cells; host or cells: NCI-60 human cancer cell lines
Experimental: as §1, §2, §3, §4, §6

ABCA3 = biological target: T4, ABCA3 (Homo sapiens, UniProt Q99758); assay: Correlation of ABCA3 expression with drug sensitivity across the NCI-60; assay type: cell-based; conditions: Pearson correlation of ABCA3 expression with sensitivity of the 60 cell lines; 1429 compounds; inverse, p < 0.0001
T4 construct: profiled in 60 diverse cancer cell lines (the NCI-60) using real-time RT-PCR; endogenous in cells; host or cells: NCI-60 human cancer cell lines
Experimental: as §1, §2, §3, §4, §5

ABCC7 = biological target: T5, ABCC7 (Homo sapiens, UniProt P13569); assay: Correlation of ABCC7 expression with drug sensitivity across the NCI-60; assay type: cell-based; conditions: Pearson correlation of ABCC7 expression with sensitivity of the 60 cell lines; 1429 compounds; inverse, p < 0.0001
T5 construct: profiled in 60 diverse cancer cell lines (the NCI-60) using real-time RT-PCR; endogenous in cells; host or cells: NCI-60 human cancer cell lines
Experimental: as §1, §2, §3, §4, §5

ABCB5 = biological target: T6, ABCB5 (Homo sapiens, UniProt Q2M3G0); assay: Correlation of ABCB5 expression with drug sensitivity across the NCI-60; assay type: cell-based; conditions: Pearson correlation of ABCB5 expression with sensitivity of the 60 cell lines; 1429 compounds; inverse, p < 0.0001
T6 construct: profiled in 60 diverse cancer cell lines (the NCI-60) using real-time RT-PCR; endogenous in cells; host or cells: NCI-60 human cancer cell lines
T6 sequence (Q2M3G0 1-1257): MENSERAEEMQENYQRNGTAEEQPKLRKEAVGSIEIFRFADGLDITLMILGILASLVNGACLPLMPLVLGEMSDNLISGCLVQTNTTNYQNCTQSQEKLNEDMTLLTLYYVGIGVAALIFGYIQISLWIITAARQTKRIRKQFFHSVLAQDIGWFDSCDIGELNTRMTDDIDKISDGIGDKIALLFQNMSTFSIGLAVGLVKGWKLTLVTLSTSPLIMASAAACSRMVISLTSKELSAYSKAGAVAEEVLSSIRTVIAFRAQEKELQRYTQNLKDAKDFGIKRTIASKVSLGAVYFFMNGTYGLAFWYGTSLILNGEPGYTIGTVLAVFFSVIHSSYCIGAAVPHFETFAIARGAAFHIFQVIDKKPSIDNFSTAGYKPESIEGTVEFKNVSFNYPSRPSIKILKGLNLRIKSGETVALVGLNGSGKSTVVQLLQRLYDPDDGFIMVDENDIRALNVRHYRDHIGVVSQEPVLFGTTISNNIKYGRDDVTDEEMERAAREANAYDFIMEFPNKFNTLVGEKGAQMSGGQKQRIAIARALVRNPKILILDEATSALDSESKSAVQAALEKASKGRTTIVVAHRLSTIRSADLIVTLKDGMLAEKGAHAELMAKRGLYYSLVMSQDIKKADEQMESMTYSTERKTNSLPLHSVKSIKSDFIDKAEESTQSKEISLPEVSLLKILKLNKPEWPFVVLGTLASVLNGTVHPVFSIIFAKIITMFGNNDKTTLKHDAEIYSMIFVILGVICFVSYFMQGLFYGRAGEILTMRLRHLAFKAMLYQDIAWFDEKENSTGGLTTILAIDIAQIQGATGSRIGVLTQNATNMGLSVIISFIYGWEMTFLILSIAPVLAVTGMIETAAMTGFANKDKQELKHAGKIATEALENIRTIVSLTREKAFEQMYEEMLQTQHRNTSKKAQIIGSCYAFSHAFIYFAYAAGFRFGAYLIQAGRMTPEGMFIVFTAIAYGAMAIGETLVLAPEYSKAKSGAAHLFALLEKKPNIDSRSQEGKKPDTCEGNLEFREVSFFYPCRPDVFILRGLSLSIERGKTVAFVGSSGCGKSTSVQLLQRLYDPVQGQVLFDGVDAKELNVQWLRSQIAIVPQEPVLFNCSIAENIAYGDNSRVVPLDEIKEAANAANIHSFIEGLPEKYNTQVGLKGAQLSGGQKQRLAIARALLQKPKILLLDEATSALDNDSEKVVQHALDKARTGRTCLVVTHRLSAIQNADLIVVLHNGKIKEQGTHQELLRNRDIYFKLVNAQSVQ
Experimental: as §1, §2, §3, §4, §6

ABCB1 = ABCB1 (Homo sapiens, UniProt P08183); assay: Correlation of ABCB1 expression with drug sensitivity across the NCI-60
Summary of the method: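 SYBR Green real-time RT-PCR on 150 ng total RNA with 250 nM primers: RT 20 min at 50 °C, then 45 cycles; expression taken as crossing-point cycle number. Correlated with drug sensitivity of 1429 compounds across the cell panel; permutation p-values with step-down and step-up (FDR q-value) multiple-testing correction.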

[1] = tested on: KB-V1 cells (over-express MDR1-P-gp) vs parental KB-3-1 cells; assay: MTT assay using the KB-3-1/KB-V1 cell pair; assay type: cell-based, human
Experimental: Cell survival is measured by the MTT (3-(4,5-Dimethylthiazol-2-yl)-2,5-diphenyltetrazolium) Assay. Cells are seeded in 100 μl medium at a density of 5000 cells/well in 96 well plates, and serially diluted drug (with or without 2 μM PSC 833) is added the following day in 100 μl medium to give the indicated final concentration. Cells are then incubated for 72 hrs at 37° C. in 5% CO2, and the MTT assay is performed according to the manufacturer's instructions (Molecular Probes, Eugene, Oreg.).
To test whether our approach using the NCI-60 does, in fact, identify new substrates, an MTT assay is used to test all top-scoring compounds that were available from DTP for follow-up experiments. KB-3-1, a human carcinoma cell line, and KB-V1, a multidrug resistant derivative of KB-3-1 that over-expresses MDR1-P-gp (Shen et al., 1986, J. Biol. Chem. 261:7762-7770), are used for the tests. […] This resistance of KB-V-1 cells is invariably reversible by PSC 833. The intrinsic fluorescence of one of the compounds, NSC 634791, allows for the measurement of the effect of MDR1 activity on its export from cells.

T4 sequence (Q99758 whole entry): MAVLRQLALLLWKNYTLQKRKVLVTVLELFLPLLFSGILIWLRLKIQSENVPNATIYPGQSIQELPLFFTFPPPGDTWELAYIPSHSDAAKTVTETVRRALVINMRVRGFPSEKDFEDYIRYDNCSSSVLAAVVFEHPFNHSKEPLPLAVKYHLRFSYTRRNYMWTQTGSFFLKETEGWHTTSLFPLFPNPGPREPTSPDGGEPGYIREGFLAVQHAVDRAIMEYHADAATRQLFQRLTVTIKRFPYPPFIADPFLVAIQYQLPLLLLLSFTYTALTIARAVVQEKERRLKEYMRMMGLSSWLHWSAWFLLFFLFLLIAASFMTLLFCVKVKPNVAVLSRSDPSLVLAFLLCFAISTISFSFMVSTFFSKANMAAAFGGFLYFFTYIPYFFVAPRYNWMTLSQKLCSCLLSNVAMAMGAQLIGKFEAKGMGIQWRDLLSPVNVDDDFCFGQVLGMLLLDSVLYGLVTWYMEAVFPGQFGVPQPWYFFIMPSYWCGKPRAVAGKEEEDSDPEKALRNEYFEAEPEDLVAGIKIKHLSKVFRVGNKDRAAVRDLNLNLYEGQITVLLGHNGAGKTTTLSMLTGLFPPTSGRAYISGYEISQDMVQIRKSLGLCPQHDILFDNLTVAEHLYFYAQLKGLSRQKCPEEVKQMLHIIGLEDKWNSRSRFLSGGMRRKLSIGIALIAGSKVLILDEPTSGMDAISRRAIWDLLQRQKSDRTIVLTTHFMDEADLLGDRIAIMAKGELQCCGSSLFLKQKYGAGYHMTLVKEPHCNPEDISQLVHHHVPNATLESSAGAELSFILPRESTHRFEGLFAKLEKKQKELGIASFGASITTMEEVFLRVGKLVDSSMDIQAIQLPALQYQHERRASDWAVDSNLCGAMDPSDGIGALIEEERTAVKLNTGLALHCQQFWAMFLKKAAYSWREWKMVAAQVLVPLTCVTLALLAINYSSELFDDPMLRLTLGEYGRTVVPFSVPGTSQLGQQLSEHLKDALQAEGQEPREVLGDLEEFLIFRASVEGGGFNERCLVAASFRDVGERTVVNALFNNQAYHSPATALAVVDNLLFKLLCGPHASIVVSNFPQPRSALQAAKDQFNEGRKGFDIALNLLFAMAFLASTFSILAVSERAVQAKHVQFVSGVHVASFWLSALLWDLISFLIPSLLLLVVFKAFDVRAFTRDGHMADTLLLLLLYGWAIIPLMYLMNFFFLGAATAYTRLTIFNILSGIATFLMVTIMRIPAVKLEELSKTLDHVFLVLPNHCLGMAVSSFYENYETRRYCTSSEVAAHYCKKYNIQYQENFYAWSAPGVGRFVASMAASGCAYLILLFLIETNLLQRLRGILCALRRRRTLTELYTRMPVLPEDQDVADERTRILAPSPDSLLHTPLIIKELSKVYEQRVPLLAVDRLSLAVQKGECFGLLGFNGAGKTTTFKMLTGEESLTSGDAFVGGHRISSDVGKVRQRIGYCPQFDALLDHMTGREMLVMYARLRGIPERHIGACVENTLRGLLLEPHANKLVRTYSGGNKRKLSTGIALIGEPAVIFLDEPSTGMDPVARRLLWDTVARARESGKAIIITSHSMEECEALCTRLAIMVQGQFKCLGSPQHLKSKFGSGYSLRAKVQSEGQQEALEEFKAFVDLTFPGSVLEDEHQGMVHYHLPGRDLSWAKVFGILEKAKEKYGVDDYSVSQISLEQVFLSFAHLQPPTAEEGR
T5 sequence (P13569 whole entry): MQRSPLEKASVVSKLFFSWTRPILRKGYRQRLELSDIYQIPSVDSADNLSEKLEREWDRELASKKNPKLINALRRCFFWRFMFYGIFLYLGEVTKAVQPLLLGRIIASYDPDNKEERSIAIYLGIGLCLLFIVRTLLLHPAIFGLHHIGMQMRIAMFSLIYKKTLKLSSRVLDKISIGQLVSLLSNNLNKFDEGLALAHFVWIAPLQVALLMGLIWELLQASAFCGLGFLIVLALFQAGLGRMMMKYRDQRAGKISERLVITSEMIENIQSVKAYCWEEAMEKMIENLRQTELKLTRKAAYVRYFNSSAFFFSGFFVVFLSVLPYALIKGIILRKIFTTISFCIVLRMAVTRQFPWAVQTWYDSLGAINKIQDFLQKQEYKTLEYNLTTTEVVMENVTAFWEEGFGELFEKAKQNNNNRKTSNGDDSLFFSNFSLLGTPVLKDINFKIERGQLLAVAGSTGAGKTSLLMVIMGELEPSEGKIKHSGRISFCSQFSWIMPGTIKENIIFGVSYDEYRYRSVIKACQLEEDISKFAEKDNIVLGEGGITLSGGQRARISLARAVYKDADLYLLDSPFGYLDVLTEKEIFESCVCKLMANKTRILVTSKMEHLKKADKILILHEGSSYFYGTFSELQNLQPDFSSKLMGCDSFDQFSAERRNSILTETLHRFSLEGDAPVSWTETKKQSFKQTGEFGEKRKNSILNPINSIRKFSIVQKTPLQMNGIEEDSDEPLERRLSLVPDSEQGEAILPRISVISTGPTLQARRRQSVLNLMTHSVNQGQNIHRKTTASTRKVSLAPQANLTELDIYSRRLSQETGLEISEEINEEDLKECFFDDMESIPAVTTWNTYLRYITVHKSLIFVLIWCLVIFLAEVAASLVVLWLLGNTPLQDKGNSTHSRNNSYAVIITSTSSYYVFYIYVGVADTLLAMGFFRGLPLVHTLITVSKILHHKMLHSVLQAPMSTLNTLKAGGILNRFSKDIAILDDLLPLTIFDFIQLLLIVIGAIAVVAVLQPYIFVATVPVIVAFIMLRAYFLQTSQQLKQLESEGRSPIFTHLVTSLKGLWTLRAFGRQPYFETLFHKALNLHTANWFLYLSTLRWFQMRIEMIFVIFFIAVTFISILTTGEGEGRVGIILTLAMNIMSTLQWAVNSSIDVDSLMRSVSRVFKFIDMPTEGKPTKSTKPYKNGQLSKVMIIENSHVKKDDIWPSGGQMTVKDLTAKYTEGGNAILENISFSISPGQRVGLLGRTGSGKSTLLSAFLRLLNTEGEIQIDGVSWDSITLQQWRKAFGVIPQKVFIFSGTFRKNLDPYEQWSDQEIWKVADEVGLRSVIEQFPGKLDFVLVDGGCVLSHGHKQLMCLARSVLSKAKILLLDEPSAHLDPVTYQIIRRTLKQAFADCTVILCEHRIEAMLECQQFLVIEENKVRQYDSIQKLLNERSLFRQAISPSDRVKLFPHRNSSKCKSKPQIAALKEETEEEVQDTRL
T2 sequence (P33527 whole entry): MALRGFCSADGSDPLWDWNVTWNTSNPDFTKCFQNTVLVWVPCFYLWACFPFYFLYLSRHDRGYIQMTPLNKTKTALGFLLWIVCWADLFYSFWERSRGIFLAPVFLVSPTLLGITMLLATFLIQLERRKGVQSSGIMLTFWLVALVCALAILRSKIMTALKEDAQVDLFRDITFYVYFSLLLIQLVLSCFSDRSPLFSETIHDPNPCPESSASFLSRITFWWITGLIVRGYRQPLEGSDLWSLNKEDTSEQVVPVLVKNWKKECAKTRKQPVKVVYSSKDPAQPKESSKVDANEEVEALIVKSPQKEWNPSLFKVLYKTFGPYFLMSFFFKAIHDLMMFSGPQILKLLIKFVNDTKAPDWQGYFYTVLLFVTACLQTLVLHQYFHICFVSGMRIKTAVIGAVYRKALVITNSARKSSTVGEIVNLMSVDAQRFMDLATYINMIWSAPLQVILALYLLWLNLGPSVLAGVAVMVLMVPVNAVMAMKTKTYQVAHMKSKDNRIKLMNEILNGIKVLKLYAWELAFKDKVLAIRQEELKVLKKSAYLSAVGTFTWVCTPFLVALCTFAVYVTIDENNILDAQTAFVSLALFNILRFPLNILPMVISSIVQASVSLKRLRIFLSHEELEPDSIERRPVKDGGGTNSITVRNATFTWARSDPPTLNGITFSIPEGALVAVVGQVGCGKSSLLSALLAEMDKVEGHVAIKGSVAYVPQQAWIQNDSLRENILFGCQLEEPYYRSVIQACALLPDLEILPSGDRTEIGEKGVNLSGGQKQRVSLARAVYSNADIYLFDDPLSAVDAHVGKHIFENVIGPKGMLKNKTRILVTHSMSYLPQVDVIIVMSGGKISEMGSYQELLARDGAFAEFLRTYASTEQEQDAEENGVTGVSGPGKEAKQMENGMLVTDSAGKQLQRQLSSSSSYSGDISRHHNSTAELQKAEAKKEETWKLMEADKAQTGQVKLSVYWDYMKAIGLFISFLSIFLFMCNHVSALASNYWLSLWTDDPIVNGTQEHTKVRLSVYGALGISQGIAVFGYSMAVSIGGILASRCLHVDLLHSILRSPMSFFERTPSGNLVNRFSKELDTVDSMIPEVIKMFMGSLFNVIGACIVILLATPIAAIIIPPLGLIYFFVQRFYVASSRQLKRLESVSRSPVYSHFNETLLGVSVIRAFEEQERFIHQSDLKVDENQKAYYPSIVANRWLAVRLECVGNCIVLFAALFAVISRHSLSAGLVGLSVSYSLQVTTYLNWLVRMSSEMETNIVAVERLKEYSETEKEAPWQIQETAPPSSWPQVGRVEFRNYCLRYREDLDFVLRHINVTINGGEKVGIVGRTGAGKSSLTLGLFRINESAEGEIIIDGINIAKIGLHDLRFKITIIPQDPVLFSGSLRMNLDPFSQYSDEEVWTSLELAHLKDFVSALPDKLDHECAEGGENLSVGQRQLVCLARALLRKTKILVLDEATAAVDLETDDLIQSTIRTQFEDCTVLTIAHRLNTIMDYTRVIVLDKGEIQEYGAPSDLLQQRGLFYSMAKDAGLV

In the case of Cc1oc2c(c1C(=O)c1ccccc1)C(=O)c1ccccc1C2=O [NSC 641594], the Correlation (ABCC3) is reported as −0.4994 and the Correlation (ABCC1) is reported as −0.4324.

O=C(CC(=O)c1ccccc1NC1=Cc2ccccc2C(=O)C1=O)C(=O)NC1=C(Cl)C(=O)c2ccccc2C1=O [NSC 641245] gave a Correlation (ABCC3) of −0.5702.

With CC1C(c2ccc3c(c2)OCO3)c2cc3c(cc2OC1N1CCOCC1)OCO3 (centres unmarked) [NSC 666222] the Correlation (ABCC1) was −0.3675.

In the case of O=C1C(CO)=C[C@H](O)[C@H]2O[C@@H]12 [NSC 326233], the Correlation (ABCB11) is reported as −0.4430.

COc1cc(C(=O)N[C@H]2CCc3cc(OC)c(OC)c(OC)c3-c3ccc(OC)c(=O)cc32)cc(OC)c1OC [NSC 355256] gave a Correlation (ABCA3) of −0.3769.

Work on CC(=O)Oc1c2ccsc2c(OC(C)=O)c2ccsc12 [NSC 695914] yielded a Correlation (ABCC7) of −0.4297.

CCOC(=O)/C(C#N)=C/c1ccc2c(c1)CC1(C2)Cc2cc(CC)c(C(C)O)cc2C1 (centres unmarked) [NSC 670289] showed a Correlation (ABCC3) of −0.3824.

Compound CC(=O)Oc1ccc(C2(c3ccc(F)cc3)OC(=O)c3ccccc32)c(C)c1 (centres unmarked) [NSC 671456] has a Correlation (ABCB5) of −0.3650.

With CN(C)CC1CCC/C(=C\c2ccc(OC(=O)/C=C/c3ccc(Cl)c(Cl)c3)cc2)C1=O.Cl (centres unmarked) [NSC 693443] the “Pearson's Correlation Coeff” value (ABCB1) was 0.1842 and the Correlation (ABCB5) was −0.3300.

Cn1c(=O)nc2n(-c3ccc(Cl)cc3)c3cc(Cl)ccc3nc-2c1=O [NSC 627991] showed a Correlation (ABCC3) of −0.4741.

COC(=O)CCC(=O)NC1=C(Nc2ccc(OC)cc2)C(=O)c2ccccc2C1=O [NSC 670766] gave a Correlation (ABCC7) of −0.4378.

For CC1CSC(=S)N1C(=O)N1C(=S)SCC1C (centres unmarked) [NSC 654968], the Correlation (ABCC7) was −0.5519.

COc1ccc(O)c2c(=O)c3c(OC)cc4c(c3oc12)[C@@H]1C=CO[C@@H]1O4 [NSC 178249] showed a Correlation (ABCC7) of −0.5603.

Compound OCC1OC(c2scc3c(=S)nc[nH]c23)C(O)C1O (centres unmarked) [NSC 670036] has a Correlation (ABCB5) of −0.4561.

In the case of C=C(c1ccccc1)[C@@]1(O)CC[C@@H]1N(CC#N)Cc1ccccc1 [NSC 617644], the Correlation (ABCC1) is reported as −0.5087.

With COc1ccc(NC(=S)N=Nc2c(O)[nH]c3c(Cl)cc(Cl)cc23)cc1 [NSC 73304] the “Effect of PSC 833 on the heightened sensitivity of KB-V1 cells” value ([1]; MTT assay with 2 μM PSC 833) was “completely reverses sensitivity” and the “Sensitivity of KB-V1 cells relative to parental KB-3-1 (potentiation by ABCB1)” value ([1]; MTT assay, 72 hrs) was “several-fold more sensitive”.

For CC1=CC(=O)C(C)=CC1=O [NSC 15309], the Correlation (ABCB11) was −0.4683.

Compound CC(=O)O[C@H]1C(=O)[C@@]2(C)[C@H]([C@H](OC(=O)c3ccco3)[C@]3(O)C[C@H](OC(=O)[C@H](O)[C@@H](NC(=O)c4ccccc4)c4ccccc4)C(C)=C1C3(C)C)[C@]1(OC(C)=O)CO[C@@H]1C[C@@H]2O [NSC 673187] has a Correlation (ABCA3) of −0.3896.

Compound CCN(CC)CC(O)CNc1ccc(NCC2CO2)c2c1C(=O)c1ccccc1C2=O (centres unmarked) [NSC 639366] has a Correlation (ABCC3) of −0.5003.

For CC[C@]1(O)C[C@@H]2CN(CCc3c([nH]c4ccccc34)[C@@](C(=O)OC)(c3cc4c(cc3OC)N(C)[C@H]3[C@@](O)(C(=O)OC)[C@H](OC(C)=O)[C@]5(CC)C=CCN6CC[C@]43[C@@H]65)C2)C1.O=S(=O)(O)O [NSC 49842], the Correlation (ABCA3) was −0.3678.
